Measurements taken from patent US20210038753A1, “BIOLOGICAL STERILIZATION INDICATOR WITH STERILANT RESISTANCE MODULATOR” (3M INNOVATIVE PROPERTIES COMPANY, priority 2014, published 2021).

Legend:
[1] = tested on: Geobacillus stearothermophilus spores; test: Resistance of self-contained biological indicators to hydrogen peroxide sterilization, growth readout by pH colour change (GRO+); assay type: cell-based
Experimental: (§1) PET film (.09 mm thick) was coated with colloidal silica as described in International Publication No. WO2014/189716, which is incorporated herein by reference in its entirety. […] Separate aqueous spore coating solutions were prepared as described in Example 1 with the amino acids shown in table 4 present in the coating solutions. Two microliter aliquots (containing at least 10^6 spores) of the respective spore coating solutions were deposited onto the silica-coated PET film, forming a series of spaced-apart spots on the film. The spore coated films were dried in a 60° C. incubator for 12 minutes. Circular discs (hereinafter, “coated carriers”) of the PET film, each disc including one of the dried spots, were punched out and were used to assemble self-contained biological indicators (BI) similar to that shown in FIG. 1 of International Publication No. WO2014/189716. The coated carriers described above were placed into the “spore carrier 135” shown in FIG. 1 of International Publication No. WO2014/189716. Each self-contained BI comprised a polycarbonate outer container, a breaker, a cap, and a cap filter. Disposed inside the outer container were a coated carrier along with an ampoule media containing the nutrient medium from 3M ATTEST 1292 Rapid Readout Biological Indicators plus 5g/L methionine (as described in Example 1).
(§2) The self-contained biological indicators with different concentrations of additives (Table 4) were exposed to hydrogen peroxide sterilization in STERRAD NX sterilizer. The sterilization processes were run by manually injecting 1.0 ml of 59% hydrogen peroxide per load, unless specified otherwise. The exposure time was varied to determine the resistance profile of self-contained BIs with different additive formulations. The BIs were activated by pressing down the cap to break the media ampoule. The activated BIs were placed in a bench-top fluorimeter (3M Company, St. Paul, Minn.) to detect fluorescence.
(§3) A self-contained BI that is not completely inactivated (i.e., not all of the spores are killed by the sterilization process) will resume cellular functions upon activation of the BI. The production of glucosidase enzyme by surviving spores is an indication that at least one of the spores have not been inactivated (killed) by the sterilization process. The glucosidase enzyme cleaves the 4-methylumbelliferyl-glucoside (MUG) releasing the fluorescent methyl umbelliferone, which is detected using a bench-top fluorimeter. Growth and proliferation of spores in the self-contained biological indicator can also be detected by a pH change, which may be detected by a color change of the pH indicator in the growth medium.
(§4) Self-contained biological indicators were prepared (with various additives listed in table 4) as described above in this Example. For each additive tested, a lower range and a higher range was used as a preliminary screen to identify additives modulated the resistance of the spores to the sterilant. Five self-contained BIs representing each condition were exposed to hydrogen peroxide sterilization in STERRAD NX sterilizer. The sterilization processes used a constant injection volume (1.0 ml of 59% hydrogen peroxide) and various times (e.g., 20 seconds to 7 minutes) of exposure to the hydrogen peroxide. The self-contained BIs were activated after exposure to the sterilization process and were monitored for fluorescence using a bench-top fluorimeter) and pH based color change (visually). […]
(§5) Self-contained biological indicators (with various additives listed in table 5) were prepared as described in Example 2. The self-contained biological indicators were exposed to hydrogen peroxide in a STERRAD NX sterilizer as described in Example 2. The self-contained BIs were activated after exposure to the sterilization process and were monitored for fluorescence using a bench-top fluorimeter and pH based color change (visually).

[2] = tested on: Geobacillus stearothermophilus spores; test: Resistance of self-contained biological indicators to hydrogen peroxide sterilization, glucosidase enzyme activity fluorescence readout (ENZ+); assay type: cell-based
Experimental: as §1, §2, §3, §4, §5

[3] = Table 4, modulator 0.01 weight percent in spore coating solution, H2O2 exposure 30 sec.
[4] = Table 4, modulator 0.01 weight percent in spore coating solution, H2O2 exposure 60 sec.
[5] = Table 4, modulator 0.01 weight percent in spore coating solution, H2O2 exposure 90 sec.
[6] = Table 4, modulator 0.01 weight percent in spore coating solution, H2O2 exposure 3 min.
[7] = Table 4, modulator 0.01 weight percent in spore coating solution, H2O2 exposure 7 min.
[8] = Table 4, modulator 0.1 weight percent in spore coating solution, H2O2 exposure 30 sec.
[9] = Table 4, modulator 0.1 weight percent in spore coating solution, H2O2 exposure 60 sec.
[10] = Table 4, modulator 0.1 weight percent in spore coating solution, H2O2 exposure 90 sec.
[11] = Table 4, modulator 0.1 weight percent in spore coating solution, H2O2 exposure 3 min.
[12] = Table 4, modulator 0.1 weight percent in spore coating solution, H2O2 exposure 7 min.
[13] = Table 5, modulator 0.05 weight percent in spore coating solution, H2O2 exposure 20 sec.
[14] = Table 5, modulator 0.05 weight percent in spore coating solution, H2O2 exposure 30 sec.
[15] = Table 5, modulator 0.05 weight percent in spore coating solution, H2O2 exposure 60 sec.
[16] = Table 5, modulator 0.05 weight percent in spore coating solution, H2O2 exposure 90 sec.
[17] = Table 5, modulator 0.05 weight percent in spore coating solution, H2O2 exposure 3 min.
[18] = Table 5, modulator 0.05 weight percent in spore coating solution, H2O2 exposure 7 min.
[19] = Table 5, modulator 0.1 weight percent in spore coating solution, H2O2 exposure 20 sec.
[20] = Table 5, modulator 0.1 weight percent in spore coating solution, H2O2 exposure 30 sec.
[21] = Table 5, modulator 0.1 weight percent in spore coating solution, H2O2 exposure 60 sec.
[22] = Table 5, modulator 0.1 weight percent in spore coating solution, H2O2 exposure 90 sec.
[23] = Table 5, modulator 0.1 weight percent in spore coating solution, H2O2 exposure 3 min.
[24] = Table 5, modulator 0.1 weight percent in spore coating solution, H2O2 exposure 7 min.
[25] = Table 5, modulator 0.2 weight percent in spore coating solution, H2O2 exposure 20 sec.
[26] = Table 5, modulator 0.2 weight percent in spore coating solution, H2O2 exposure 30 sec.
[27] = Table 5, modulator 0.2 weight percent in spore coating solution, H2O2 exposure 60 sec.
[28] = Table 5, modulator 0.2 weight percent in spore coating solution, H2O2 exposure 90 sec.
[29] = Table 5, modulator 0.2 weight percent in spore coating solution, H2O2 exposure 3 min.
[30] = Table 5, modulator 0.2 weight percent in spore coating solution, H2O2 exposure 7 min.
[31] = Table 5, modulator 0.4 weight percent in spore coating solution, H2O2 exposure 20 sec.
[32] = Table 5, modulator 0.4 weight percent in spore coating solution, H2O2 exposure 30 sec.
[33] = Table 5, modulator 0.4 weight percent in spore coating solution, H2O2 exposure 60 sec.
[34] = Table 5, modulator 0.4 weight percent in spore coating solution, H2O2 exposure 90 sec.
[35] = Table 5, modulator 0.4 weight percent in spore coating solution, H2O2 exposure 3 min.
[36] = Table 5, modulator 0.4 weight percent in spore coating solution, H2O2 exposure 7 min.
[37] = Table 5, modulator 0.8 weight percent in spore coating solution, H2O2 exposure 20 sec.
[38] = Table 5, modulator 0.8 weight percent in spore coating solution, H2O2 exposure 30 sec.
[39] = Table 5, modulator 0.8 weight percent in spore coating solution, H2O2 exposure 60 sec.
[40] = Table 5, modulator 0.8 weight percent in spore coating solution, H2O2 exposure 90 sec.
[41] = Table 5, modulator 0.8 weight percent in spore coating solution, H2O2 exposure 3 min.
[42] = Table 5, modulator 0.8 weight percent in spore coating solution, H2O2 exposure 7 min.

Structure (SMILES): N[C@@H](Cc1c[nH]cn1)C(=O)O [L-histidine]
- sensitivity of the biological indicator to the sterilization process relative to the control with no additives ([1]; Example 2 / Comparative Example 1 (Table 4), fluorescence and growth readouts): increased sensitivity (decreased resistance)
- sensitivity of the spores to the damaging/lethal effects of the sterilization process relative to the control with no additives ([1]; Example 3 (Table 5), fluorescence and growth readouts): increased sensitivity
- percentage of self-contained biological indicators positive for growth (GRO+) [1, 3]: 80%
- percentage of self-contained biological indicators positive for growth (GRO+) [1, 4]: 0%
- percentage of self-contained biological indicators positive for growth (GRO+) [1, 5]: 0%
- percentage of self-contained biological indicators positive for growth (GRO+) [1, 6]: 0%
- percentage of self-contained biological indicators positive for growth (GRO+) [1, 7]: 0%
- percentage of self-contained biological indicators positive for growth (GRO+) [1, 8]: 0%
- percentage of self-contained biological indicators positive for growth (GRO+) [1, 9]: 0%
- percentage of self-contained biological indicators positive for growth (GRO+) [1, 10]: 0%
- percentage of self-contained biological indicators positive for growth (GRO+) [1, 11]: 0%
- percentage of self-contained biological indicators positive for growth (GRO+) [1, 12]: 0%
- percentage of self-contained biological indicators positive for growth (GRO+) [1, 13]: 100%
- percentage of self-contained biological indicators positive for growth (GRO+) [1, 14]: 100%
- percentage of self-contained biological indicators positive for growth (GRO+) [1, 15]: 0%
- percentage of self-contained biological indicators positive for growth (GRO+) [1, 16]: 0%
- percentage of self-contained biological indicators positive for growth (GRO+) [1, 17]: 0%
- percentage of self-contained biological indicators positive for growth (GRO+) [1, 18]: 0%
- percentage of self-contained biological indicators positive for growth (GRO+) [1, 19]: 100%
- percentage of self-contained biological indicators positive for growth (GRO+) [1, 20]: 33%
- percentage of self-contained biological indicators positive for growth (GRO+) [1, 21]: 0%
- percentage of self-contained biological indicators positive for growth (GRO+) [1, 22]: 0%
- percentage of self-contained biological indicators positive for growth (GRO+) [1, 23]: 0%
- percentage of self-contained biological indicators positive for growth (GRO+) [1, 24]: 0%
- percentage of self-contained biological indicators positive for growth (GRO+) [1, 25]: 100%
- percentage of self-contained biological indicators positive for growth (GRO+) [1, 26]: 0%
- percentage of self-contained biological indicators positive for growth (GRO+) [1, 27]: 0%
- percentage of self-contained biological indicators positive for growth (GRO+) [1, 28]: 0%
- percentage of self-contained biological indicators positive for growth (GRO+) [1, 29]: 0%
- percentage of self-contained biological indicators positive for growth (GRO+) [1, 30]: 0%
- percentage of self-contained biological indicators positive for growth (GRO+) [1, 31]: 100%
- percentage of self-contained biological indicators positive for growth (GRO+) [1, 32]: 0%
- percentage of self-contained biological indicators positive for growth (GRO+) [1, 33]: 0%
- percentage of self-contained biological indicators positive for growth (GRO+) [1, 34]: 0%
- percentage of self-contained biological indicators positive for growth (GRO+) [1, 35]: 0%
- percentage of self-contained biological indicators positive for growth (GRO+) [1, 36]: 0%
- percentage of self-contained biological indicators positive for growth (GRO+) [1, 37]: 33%
- percentage of self-contained biological indicators positive for growth (GRO+) [1, 38]: 0%
- percentage of self-contained biological indicators positive for growth (GRO+) [1, 39]: 0%
- percentage of self-contained biological indicators positive for growth (GRO+) [1, 40]: 0%
- percentage of self-contained biological indicators positive for growth (GRO+) [1, 41]: 0%
- percentage of self-contained biological indicators positive for growth (GRO+) [1, 42]: 0%
- percentage of self-contained biological indicators positive for glucosidase enzyme activity (ENZ+) [2, 3]: 100%
- percentage of self-contained biological indicators positive for glucosidase enzyme activity (ENZ+) [2, 4]: 80%
- percentage of self-contained biological indicators positive for glucosidase enzyme activity (ENZ+) [2, 5]: 0%
- percentage of self-contained biological indicators positive for glucosidase enzyme activity (ENZ+) [2, 6]: 0%
- percentage of self-contained biological indicators positive for glucosidase enzyme activity (ENZ+) [2, 7]: 0%
- percentage of self-contained biological indicators positive for glucosidase enzyme activity (ENZ+) [2, 8]: 100%
- percentage of self-contained biological indicators positive for glucosidase enzyme activity (ENZ+) [2, 9]: 10%
- percentage of self-contained biological indicators positive for glucosidase enzyme activity (ENZ+) [2, 10]: 0%
- percentage of self-contained biological indicators positive for glucosidase enzyme activity (ENZ+) [2, 11]: 0%
- percentage of self-contained biological indicators positive for glucosidase enzyme activity (ENZ+) [2, 12]: 0%
- percentage of self-contained biological indicators positive for glucosidase enzyme activity (ENZ+) [2, 13]: 100%
- percentage of self-contained biological indicators positive for glucosidase enzyme activity (ENZ+) [2, 14]: 100%
- percentage of self-contained biological indicators positive for glucosidase enzyme activity (ENZ+) [2, 15]: 0%
- percentage of self-contained biological indicators positive for glucosidase enzyme activity (ENZ+) [2, 16]: 0%
- percentage of self-contained biological indicators positive for glucosidase enzyme activity (ENZ+) [2, 17]: 0%
- percentage of self-contained biological indicators positive for glucosidase enzyme activity (ENZ+) [2, 18]: 0%
- percentage of self-contained biological indicators positive for glucosidase enzyme activity (ENZ+) [2, 19]: 100%
- percentage of self-contained biological indicators positive for glucosidase enzyme activity (ENZ+) [2, 20]: 100%
- percentage of self-contained biological indicators positive for glucosidase enzyme activity (ENZ+) [2, 21]: 67%
- percentage of self-contained biological indicators positive for glucosidase enzyme activity (ENZ+) [2, 22]: 67%
- percentage of self-contained biological indicators positive for glucosidase enzyme activity (ENZ+) [2, 23]: 0%
- percentage of self-contained biological indicators positive for glucosidase enzyme activity (ENZ+) [2, 24]: 0%
- percentage of self-contained biological indicators positive for glucosidase enzyme activity (ENZ+) [2, 25]: 100%
- percentage of self-contained biological indicators positive for glucosidase enzyme activity (ENZ+) [2, 26]: 100%
- percentage of self-contained biological indicators positive for glucosidase enzyme activity (ENZ+) [2, 27]: 33%
- percentage of self-contained biological indicators positive for glucosidase enzyme activity (ENZ+) [2, 28]: 67%
- percentage of self-contained biological indicators positive for glucosidase enzyme activity (ENZ+) [2, 29]: 0%
- percentage of self-contained biological indicators positive for glucosidase enzyme activity (ENZ+) [2, 30]: 0%
- percentage of self-contained biological indicators positive for glucosidase enzyme activity (ENZ+) [2, 31]: 100%
- percentage of self-contained biological indicators positive for glucosidase enzyme activity (ENZ+) [2, 32]: 100%
- percentage of self-contained biological indicators positive for glucosidase enzyme activity (ENZ+) [2, 33]: 0%
- percentage of self-contained biological indicators positive for glucosidase enzyme activity (ENZ+) [2, 34]: 33%
- percentage of self-contained biological indicators positive for glucosidase enzyme activity (ENZ+) [2, 35]: 0%
- percentage of self-contained biological indicators positive for glucosidase enzyme activity (ENZ+) [2, 36]: 0%
- percentage of self-contained biological indicators positive for glucosidase enzyme activity (ENZ+) [2, 37]: 100%
- percentage of self-contained biological indicators positive for glucosidase enzyme activity (ENZ+) [2, 38]: 100%
- percentage of self-contained biological indicators positive for glucosidase enzyme activity (ENZ+) [2, 39]: 0%
- percentage of self-contained biological indicators positive for glucosidase enzyme activity (ENZ+) [2, 40]: 67%
- percentage of self-contained biological indicators positive for glucosidase enzyme activity (ENZ+) [2, 41]: 0%
- percentage of self-contained biological indicators positive for glucosidase enzyme activity (ENZ+) [2, 42]: 0%
